Results on five molecules are retold here after ChEMBL document CHEMBL4699602, “Stapled and Xenopus Glucagon-Like Peptide 1 (GLP-1)-Based Dual GLP-1/Gastrin Receptor Agonists with Improved Metabolic Benefits in Rodent Models of Obesity and Diabetes” (J Med Chem, 2020).

Assay [1] concerns the target T1, Glucagon-like peptide 1 receptor (Homo sapiens, UniProt P43220). Put plainly: Ratio of EC50 for agonist activity at human GLP-1R expressed in HEK293 cells in presence of 4.4% HSA to EC50 for agonist activity at human GLP-1R expressed in HEK293 cells in presence of 0% HSA. In kind it is cell-based.
Assay [2] concerns the target T1, Glucagon-like peptide 1 receptor. Put plainly: Agonist activity at human GLP-1R expressed in HEK293 cells assessed as stimulation of cAMP accumulation incubated for 20 mins in presence of 4.4% HSA. Type of assay: functional, cell-based. For orientation: Cyclic AMP is a second messenger, typically raised through Gs and lowered through Gi signalling.
Assay [3] shares this target. Put plainly: Agonist activity at human GLP-1R expressed in HEK293 cells assessed as stimulation of cAMP accumulation incubated for 20 mins in presence of 0% HSA. In kind it is functional, cell-based.

Molecules are shown by their SMILES. Where a SMILES comes first, the peptide text is derived from it.

T1 sequence (P43220 whole entry): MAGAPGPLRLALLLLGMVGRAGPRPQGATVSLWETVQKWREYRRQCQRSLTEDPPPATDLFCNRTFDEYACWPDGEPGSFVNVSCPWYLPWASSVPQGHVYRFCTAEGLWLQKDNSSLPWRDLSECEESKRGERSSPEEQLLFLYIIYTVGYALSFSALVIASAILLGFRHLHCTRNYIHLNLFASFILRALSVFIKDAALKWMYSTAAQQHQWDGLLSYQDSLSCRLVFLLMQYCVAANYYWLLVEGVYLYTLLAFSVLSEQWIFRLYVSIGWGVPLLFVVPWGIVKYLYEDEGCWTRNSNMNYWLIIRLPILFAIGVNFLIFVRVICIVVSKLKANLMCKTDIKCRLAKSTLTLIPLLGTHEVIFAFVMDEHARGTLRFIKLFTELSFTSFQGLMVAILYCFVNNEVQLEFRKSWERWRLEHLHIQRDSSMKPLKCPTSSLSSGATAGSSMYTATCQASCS

What is called EC50 is the midpoint of the concentration-response curve. With `CC[C@H](C)[C@@H]1NC(=O)[C@H](CC(C)C)NC(=O)[C@H](Cc2c[nH]c3ccccc23)NC(=O)[C@H](CCC(=O)O)NC(=O)[C@H]([C@@H](C)CC)NC(=O)[C@H](Cc2ccccc2)NC(=O)[C@@H](NC(=O)[C@H](CCCCN)NC(=O)[C@H](C)NC(=O)[C@H](C)NC(=O)[C@H](CCC(=O)O)NC(=O)[C@H](CCC(=O)O)NC(=O)[C@H](CCC(=O)O)NC(=O)[C@H](CC(C)C)NC(=O)[C@H](Cc2ccc(O)cc2)NC(=O)[C@H](CCC(=O)O)NC(=O)[C@@H](NC(=O)[C@@H](NC(=O)[C@H](CC(=O)O)NC(=O)[C@H](CC(N)=O)NC(=O)[C@@H](NC(=O)[C@H](Cc2ccc(O)cc2)NC(=O)[C@@H](NC(=O)CNC(=O)[C@H](CCC(=O)O)NC(=O)C(C)(C)NC(=O)[C@@H](N)Cc2c[nH]cn2)[C@@H](C)O)[C@@H](C)O)C(C)C)[C@@H](C)O)CSC2CC(=O)N(CCC(=O)NCCCCC(C(=O)NCCCCCCNC(=O)COCCOCCNC(=O)CCC(NC(=O)CCCCCCCCCCCCCCCCC(=O)O)C(=O)O)NC(=O)CCN3C(=O)CC(SC[C@@H](C(=O)NCC(=O)N[C@@H](CCCCN)C(=O)N4CCC[C@H]4C(=O)N[C@@H](CO)C(=O)N[C@@H](CO)C(=O)NCC(=O)N[C@@H](C)C(=O)N4CCC[C@H]4C(=O)N4CCC[C@H]4C(=O)N4CCC[C@H]4C(=O)N[C@@H](CO)C(N)=O)NC1=O)C3=O)C2=O` (stereo not given in full) (HELM PEPTIDE1{H.[Aib].E.G.T.Y.T.N.D.V.T.E.Y.L.E.E.E.A.A.K.C.F.I.E.W.L.I.C.G.K.P.S.S.G.A.P.P.P.S.[am]}|CHEM1{[O=C(O)CCCCCCCCCCCCCCCCC(=O)NC(CCC(=O)NCCOCCOCC(=O)NCCCCCCNC(=O)C(CCCCNC(=O)CCN1C(=O)CC([*:1])C1=O)NC(=O)CCN1C(=O)CC([*:2])C1=O)C(=O)O]}$PEPTIDE1,CHEM1,21:R3-1:R1|PEPTIDE1,CHEM1,28:R3-1:R2$$$V2.0), in assay [1], the Ratio EC50 was determined as 61.4. For the same molecule, the values for the EC50 in assay [2] and in assay [3] were 8.6 nM and 0.14 nM, respectively.
As for `CC[C@H](C)[C@@H]1NC(=O)[C@H](CC(C)C)NC(=O)[C@H](Cc2c[nH]c3ccccc23)NC(=O)[C@H](CCC(=O)O)NC(=O)[C@H]([C@@H](C)CC)NC(=O)[C@H](Cc2ccccc2)NC(=O)[C@@H](NC(=O)[C@H](CCCCN)NC(=O)[C@H](C)NC(=O)[C@H](C)NC(=O)[C@H](CCC(=O)O)NC(=O)[C@H](CCC(=O)O)NC(=O)[C@H](CCC(=O)O)NC(=O)[C@H](CC(C)C)NC(=O)[C@H](Cc2ccc(O)cc2)NC(=O)[C@H](CCC(=O)O)NC(=O)[C@@H](NC(=O)[C@@H](NC(=O)[C@H](CC(=O)O)NC(=O)[C@H](CC(N)=O)NC(=O)[C@@H](NC(=O)[C@H](Cc2ccc(O)cc2)NC(=O)[C@@H](NC(=O)CNC(=O)[C@H](CCC(=O)O)NC(=O)C(C)(C)NC(=O)[C@@H](N)Cc2c[nH]cn2)[C@@H](C)O)[C@@H](C)O)C(C)C)[C@@H](C)O)CSC2CC(=O)N(CCC(=O)NCCCCC(C(=O)NCCCCCCNC(=O)COCCOCCNC(=O)COCCOCCNC(=O)CCC(NC(=O)CCCCCCCCCCCCCCCCC(=O)O)C(=O)O)NC(=O)CCN3C(=O)CC(SC[C@@H](C(=O)NCC(=O)N[C@@H](CCCCN)C(=O)N4CCC[C@H]4C(=O)N[C@@H](CO)C(=O)N[C@@H](CO)C(=O)NCC(=O)N[C@@H](C)C(=O)N4CCC[C@H]4C(=O)N4CCC[C@H]4C(=O)N4CCC[C@H]4C(=O)N[C@@H](CO)C(N)=O)NC1=O)C3=O)C2=O` (stereo not given in full) (HELM PEPTIDE1{H.[Aib].E.G.T.Y.T.N.D.V.T.E.Y.L.E.E.E.A.A.K.C.F.I.E.W.L.I.C.G.K.P.S.S.G.A.P.P.P.S.[am]}|CHEM1{[O=C(O)CCCCCCCCCCCCCCCCC(=O)NC(CCC(=O)NCCOCCOCC(=O)NCCOCCOCC(=O)NCCCCCCNC(=O)C(CCCCNC(=O)CCN1C(=O)CC([*:1])C1=O)NC(=O)CCN1C(=O)CC([*:2])C1=O)C(=O)O]}$PEPTIDE1,CHEM1,21:R3-1:R1|PEPTIDE1,CHEM1,28:R3-1:R2$$$V2.0), the Ratio EC50 in assay [1] was 97.1. The EC50 is 16.5 nM in assay [2] and 0.17 nM in assay [3].
On the same counts, the results for `CC[C@H](C)[C@@H]1NC(=O)[C@H](CC(C)C)NC(=O)[C@H](Cc2c[nH]c3ccccc23)NC(=O)[C@H](CCC(=O)O)NC(=O)[C@H]([C@@H](C)CC)NC(=O)[C@H](Cc2ccccc2)NC(=O)[C@@H](NC(=O)[C@H](CCCCN)NC(=O)[C@H](C)NC(=O)[C@H](C)NC(=O)[C@H](CCC(=O)O)NC(=O)[C@H](CCC(=O)O)NC(=O)[C@H](CCC(=O)O)NC(=O)[C@H](CC(C)C)NC(=O)[C@H](Cc2ccc(O)cc2)NC(=O)[C@H](CCC(=O)O)NC(=O)[C@@H](NC(=O)[C@@H](NC(=O)[C@H](CC(=O)O)NC(=O)[C@H](CC(N)=O)NC(=O)[C@@H](NC(=O)[C@H](Cc2ccc(O)cc2)NC(=O)[C@@H](NC(=O)CNC(=O)[C@H](CCC(=O)O)NC(=O)C(C)(C)NC(=O)[C@@H](N)Cc2c[nH]cn2)[C@@H](C)O)[C@@H](C)O)C(C)C)[C@@H](C)O)CSC2CC(=O)N(CCC(=O)NCCCCC(C(=O)NCCCCCCNC(=O)COCCOCCNC(=O)CCCCCCCCCCCCCCCCC(=O)O)NC(=O)CCN3C(=O)CC(SC[C@@H](C(=O)NCC(=O)N[C@@H](CCCCN)C(=O)N4CCC[C@H]4C(=O)N[C@@H](CO)C(=O)N[C@@H](CO)C(=O)NCC(=O)N[C@@H](C)C(=O)N4CCC[C@H]4C(=O)N4CCC[C@H]4C(=O)N4CCC[C@H]4C(=O)N[C@@H](CO)C(N)=O)NC1=O)C3=O)C2=O` (stereo not given in full) (HELM PEPTIDE1{H.[Aib].E.G.T.Y.T.N.D.V.T.E.Y.L.E.E.E.A.A.K.C.F.I.E.W.L.I.C.G.K.P.S.S.G.A.P.P.P.S.[am]}|CHEM1{[O=C(O)CCCCCCCCCCCCCCCCC(=O)NCCOCCOCC(=O)NCCCCCCNC(=O)C(CCCCNC(=O)CCN1C(=O)CC([*:1])C1=O)NC(=O)CCN1C(=O)CC([*:2])C1=O]}$PEPTIDE1,CHEM1,21:R3-1:R1|PEPTIDE1,CHEM1,28:R3-1:R2$$$V2.0) are 15.3, 2.3 nM and 0.15 nM.
On the same counts, the results for `CCCCCCCCCCCCCCCC(=O)NCCCCCCNC(=O)C1CCCCNC(=O)CCN2C(=O)CC(SC[C@@H](C(=O)NCC(=O)N[C@@H](CCCCN)C(N)=O)NC(=O)[C@H]([C@@H](C)CC)NC(=O)[C@H](CC(C)C)NC(=O)[C@H](Cc3c[nH]c4ccccc34)NC(=O)[C@H](CCC(=O)O)NC(=O)[C@H]([C@@H](C)CC)NC(=O)[C@H](Cc3ccccc3)NC(=O)[C@@H](NC(=O)[C@H](CCCCN)NC(=O)[C@H](C)NC(=O)[C@H](C)NC(=O)[C@H](CCC(=O)O)NC(=O)[C@H](CCC(=O)O)NC(=O)[C@H](CCC(=O)O)NC(=O)[C@H](CC(C)C)NC(=O)[C@H](Cc3ccc(O)cc3)NC(=O)[C@H](CCC(=O)O)NC(=O)[C@@H](NC(=O)[C@@H](NC(=O)[C@H](CC(=O)O)NC(=O)[C@H](CC(N)=O)NC(=O)[C@@H](NC(=O)[C@H](Cc3ccc(O)cc3)NC(=O)[C@@H](NC(=O)CNC(=O)[C@H](CCC(=O)O)NC(=O)C(C)(C)NC(=O)[C@@H](N)Cc3c[nH]cn3)[C@@H](C)O)[C@@H](C)O)C(C)C)[C@@H](C)O)CSC3CC(=O)N(CCC(=O)N1)C3=O)C2=O` (stereo not given in full) (HELM PEPTIDE1{H.[Aib].E.G.T.Y.T.N.D.V.T.E.Y.L.E.E.E.A.A.K.C.F.I.E.W.L.I.C.G.K.[am]}|CHEM1{[CCCCCCCCCCCCCCCC(=O)NCCCCCCNC(=O)C(CCCCNC(=O)CCN1C(=O)CC([*:2])C1=O)NC(=O)CCN1C(=O)CC([*:1])C1=O]}$PEPTIDE1,CHEM1,21:R3-1:R1|PEPTIDE1,CHEM1,28:R3-1:R2$$$V2.0) are 18.3, 2.2 nM and 0.12 nM.
On the same counts, the results for `CC[C@H](C)[C@@H]1NC(=O)[C@H](CC(C)C)NC(=O)[C@H](Cc2c[nH]c3ccccc23)NC(=O)[C@H](CCC(=O)O)NC(=O)[C@H]([C@@H](C)CC)NC(=O)[C@H](Cc2ccccc2)NC(=O)[C@@H](NC(=O)[C@H](CCCCN)NC(=O)[C@H](C)NC(=O)[C@H](C)NC(=O)[C@H](CCC(=O)O)NC(=O)[C@H](CCC(=O)O)NC(=O)[C@H](CCC(=O)O)NC(=O)[C@H](CC(C)C)NC(=O)[C@H](Cc2ccc(O)cc2)NC(=O)[C@H](CCC(=O)O)NC(=O)[C@@H](NC(=O)[C@@H](NC(=O)[C@H](CC(=O)O)NC(=O)[C@H](CC(N)=O)NC(=O)[C@@H](NC(=O)[C@H](Cc2ccc(O)cc2)NC(=O)[C@@H](NC(=O)CNC(=O)[C@H](CCC(=O)O)NC(=O)C(C)(C)NC(=O)[C@@H](N)Cc2c[nH]cn2)[C@@H](C)O)[C@@H](C)O)C(C)C)[C@@H](C)O)CSC2CC(=O)N(CCC(=O)NC(C(=O)NCCCCCCNC(=O)COCCOCCNC(=O)COCCOCCNC(=O)CCC(NC(=O)CCCCCCCCCCCCCCCCC(=O)O)C(=O)O)CCCCNC(=O)CCN3C(=O)CC(SC[C@@H](C(=O)NCC(=O)N[C@@H](CCCCN)C(N)=O)NC1=O)C3=O)C2=O` (stereo not given in full) (HELM PEPTIDE1{H.[Aib].E.G.T.Y.T.N.D.V.T.E.Y.L.E.E.E.A.A.K.C.F.I.E.W.L.I.C.G.K.[am]}|CHEM1{[O=C(O)CCCCCCCCCCCCCCCCC(=O)NC(CCC(=O)NCCOCCOCC(=O)NCCOCCOCC(=O)NCCCCCCNC(=O)C(CCCCNC(=O)CCN1C(=O)CC([*:2])C1=O)NC(=O)CCN1C(=O)CC([*:1])C1=O)C(=O)O]}$PEPTIDE1,CHEM1,21:R3-1:R1|PEPTIDE1,CHEM1,28:R3-1:R2$$$V2.0) are 95.8, 18.2 nM and 0.19 nM.
